How the values were obtained:
Assay in all cases: kinase panel
Type in all cases: biochemical
LKB1(h) = LKB1(h) (Homo sapiens, UniProt Q15831)
Procedure, shortened: (§1)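 Percentage inhibition was recorded for each compound against a broad kinase panel of 231 enzymes. Because of its close structural resemblance to another analogue, one compound was screened against 98 chosen kinases.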

TAO2(h) = TAO2(h) (Homo sapiens, UniProt Q9UL54)
Procedure, shortened: as §1

PhKγ2(h) = PhKγ2(h) (Homo sapiens, UniProt P15735)
Procedure, shortened: as §1

PKCε(h) = PKCε(h) (Homo sapiens, UniProt Q02156)
Procedure, shortened: as §1

HIPK2(h) = HIPK2(h) (Homo sapiens, UniProt Q9H2X6)
Procedure, shortened: as §1

Hck(h) activated = Hck(h) activated (Homo sapiens, UniProt P08631)
Procedure, shortened: as §1

IR(h), activated = IR(h), activated (Homo sapiens, UniProt P06213)
Procedure, shortened: as §1

RIPK2(h) = RIPK2(h) (Homo sapiens, UniProt O43353)
Procedure, shortened: as §1

Snk(h) = Snk(h) (Homo sapiens, UniProt Q9NYY3)
Procedure, shortened: as §1

DAPK2(h) = DAPK2(h) (Homo sapiens, UniProt Q9UIK4)
Procedure, shortened: as §1

DDR2(h) = DDR2(h) (Homo sapiens, UniProt Q16832)
Procedure, shortened: as §1

MELK(h) = MELK(h) (Homo sapiens, UniProt Q14680)
Procedure, shortened: as §1

Pyk2(h) = Pyk2(h) (Homo sapiens, UniProt Q14289)
Procedure, shortened: as §1

NEK11(h) = NEK11(h) (Homo sapiens, UniProt Q8NG66)
Procedure, shortened: as §1

MSSK1(h) = MSSK1(h) (Homo sapiens, UniProt Q9UPE1)
Procedure, shortened: as §1

CSK(h) = CSK(h) (Homo sapiens, UniProt P41240)
Procedure, shortened: as §1

MRCKβ(h) = MRCKβ(h) (Homo sapiens, UniProt Q9Y5S2)
Procedure, shortened: as §1

PEK(h) = PEK(h) (Homo sapiens, UniProt Q9NZJ5)
Procedure, shortened: as §1

SRPK2(h) = SRPK2(h) (Homo sapiens, UniProt P78362)
Procedure, shortened: as §1

Axl(h) = Axl(h) (Homo sapiens, UniProt P30530)
Procedure, shortened: as §1

GRK7(h) = GRK7(h) (Homo sapiens, UniProt Q8WTQ7)
Procedure, shortened: as §1

PAK5(h) = PAK5(h) (Homo sapiens, UniProt Q9P286)
Procedure, shortened: as §1

NEK3(h) = NEK3(h) (Homo sapiens, UniProt P51956)
Procedure, shortened: as §1

Mnk2(h) = Mnk2(h) (Homo sapiens, UniProt Q9HBH9)
Procedure, shortened: as §1

VRK2(h) = VRK2(h) (Homo sapiens, UniProt Q86Y07)
Procedure, shortened: as §1

Itk(h) = Itk(h) (Homo sapiens, UniProt Q08881)
Procedure, shortened: as §1

NEK6(h) = NEK6(h) (Homo sapiens, UniProt Q9HC98)
Procedure, shortened: as §1

SGK3(h) = SGK3(h) (Homo sapiens, UniProt Q96BR1)
Procedure, shortened: as §1

Lyn(h) = Lyn(h) (Homo sapiens, UniProt P07948)
Procedure, shortened: as §1

EphB1(h) = EphB1(h) (Homo sapiens, UniProt P54762)
Procedure, shortened: as §1

CK1γ1(h) = CK1γ1(h) (Homo sapiens, UniProt Q9HCP0)
Procedure, shortened: as §1

Fer(h) = Fer(h) (Homo sapiens, UniProt P16591)
Procedure, shortened: as §1

DMPK(h) = DMPK(h) (Homo sapiens, UniProt Q09013)
Procedure, shortened: as §1

DRAK1(h) = DRAK1(h) (Homo sapiens, UniProt Q9UEE5)
Procedure, shortened: as §1

EphA2(h) = EphA2(h) (Homo sapiens, UniProt P29317)
Procedure, shortened: as §1

AMPKα2(h) = AMPKα2(h) (Homo sapiens, UniProt P54646)
Procedure, shortened: as §1

Hck(h) = Hck(h) (Homo sapiens, UniProt P08631)
Procedure, shortened: as §1

TSSK1(h) = TSSK1(h) (Homo sapiens, UniProt Q9BXA7)
Procedure, shortened: as §1

GRK6(h) = GRK6(h) (Homo sapiens, UniProt P43250)
Procedure, shortened: as §1

TSSK2(h) = TSSK2(h) (Homo sapiens, UniProt Q96PF2)
Procedure, shortened: as §1

LOK(h) = LOK(h) (Homo sapiens, UniProt O94804)
Procedure, shortened: as §1

ALK4(h) = ALK4(h) (Homo sapiens, UniProt P36896)
Procedure, shortened: as §1

Chain of SRPK2(h) (P78362 whole entry): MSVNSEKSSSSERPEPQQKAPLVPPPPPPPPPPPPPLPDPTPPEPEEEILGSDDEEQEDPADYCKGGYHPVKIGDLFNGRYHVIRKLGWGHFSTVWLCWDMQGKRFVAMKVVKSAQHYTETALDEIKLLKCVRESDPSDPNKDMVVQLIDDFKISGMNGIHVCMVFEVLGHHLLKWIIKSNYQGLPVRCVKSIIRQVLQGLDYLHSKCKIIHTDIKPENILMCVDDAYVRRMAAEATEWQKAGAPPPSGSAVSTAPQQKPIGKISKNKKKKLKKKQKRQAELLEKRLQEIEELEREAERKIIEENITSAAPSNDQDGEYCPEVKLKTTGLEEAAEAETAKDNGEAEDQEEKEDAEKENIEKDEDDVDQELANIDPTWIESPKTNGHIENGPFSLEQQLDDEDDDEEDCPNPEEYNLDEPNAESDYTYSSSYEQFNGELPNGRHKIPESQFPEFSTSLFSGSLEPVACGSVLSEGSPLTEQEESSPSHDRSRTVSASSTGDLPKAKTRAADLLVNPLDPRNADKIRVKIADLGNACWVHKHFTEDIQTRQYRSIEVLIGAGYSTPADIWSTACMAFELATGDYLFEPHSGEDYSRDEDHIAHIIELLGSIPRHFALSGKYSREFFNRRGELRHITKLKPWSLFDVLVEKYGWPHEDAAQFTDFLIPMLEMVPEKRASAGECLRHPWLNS
Chain of IR(h), activated (P06213 28-1382): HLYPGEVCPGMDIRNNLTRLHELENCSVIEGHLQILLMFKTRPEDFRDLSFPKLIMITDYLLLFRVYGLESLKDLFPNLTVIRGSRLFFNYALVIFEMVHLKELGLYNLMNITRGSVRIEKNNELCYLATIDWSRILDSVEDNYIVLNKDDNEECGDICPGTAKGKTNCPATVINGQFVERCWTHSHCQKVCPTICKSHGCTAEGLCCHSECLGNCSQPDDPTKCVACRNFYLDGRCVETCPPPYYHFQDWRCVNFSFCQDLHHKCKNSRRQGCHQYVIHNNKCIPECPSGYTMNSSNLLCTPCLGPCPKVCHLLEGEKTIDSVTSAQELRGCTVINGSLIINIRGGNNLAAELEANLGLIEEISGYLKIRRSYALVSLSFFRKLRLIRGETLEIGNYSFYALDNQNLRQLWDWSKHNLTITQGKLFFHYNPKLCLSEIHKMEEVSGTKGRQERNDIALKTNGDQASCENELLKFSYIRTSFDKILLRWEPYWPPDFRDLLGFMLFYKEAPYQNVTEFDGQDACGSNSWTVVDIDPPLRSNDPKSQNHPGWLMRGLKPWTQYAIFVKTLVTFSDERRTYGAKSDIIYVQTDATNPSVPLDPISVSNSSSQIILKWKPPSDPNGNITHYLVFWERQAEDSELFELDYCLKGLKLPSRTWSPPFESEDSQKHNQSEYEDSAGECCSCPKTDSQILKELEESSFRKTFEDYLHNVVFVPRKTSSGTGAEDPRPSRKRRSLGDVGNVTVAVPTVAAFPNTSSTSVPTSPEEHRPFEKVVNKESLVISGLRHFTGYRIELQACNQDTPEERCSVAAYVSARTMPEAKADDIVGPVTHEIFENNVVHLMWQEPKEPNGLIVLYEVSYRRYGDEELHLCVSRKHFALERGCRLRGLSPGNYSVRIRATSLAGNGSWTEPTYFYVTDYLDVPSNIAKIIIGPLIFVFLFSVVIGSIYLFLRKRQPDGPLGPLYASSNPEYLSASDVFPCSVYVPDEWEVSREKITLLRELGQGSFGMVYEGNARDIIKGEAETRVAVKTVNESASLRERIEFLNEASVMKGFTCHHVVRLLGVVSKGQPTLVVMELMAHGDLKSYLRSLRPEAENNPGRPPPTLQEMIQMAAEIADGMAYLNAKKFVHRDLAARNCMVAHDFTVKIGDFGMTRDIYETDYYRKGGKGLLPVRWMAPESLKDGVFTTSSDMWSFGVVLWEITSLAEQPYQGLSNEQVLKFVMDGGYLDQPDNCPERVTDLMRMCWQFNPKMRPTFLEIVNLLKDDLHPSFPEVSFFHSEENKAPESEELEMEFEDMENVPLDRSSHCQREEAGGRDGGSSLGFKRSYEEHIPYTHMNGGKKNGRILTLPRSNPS
Chain of MELK(h) (Q14680 whole entry): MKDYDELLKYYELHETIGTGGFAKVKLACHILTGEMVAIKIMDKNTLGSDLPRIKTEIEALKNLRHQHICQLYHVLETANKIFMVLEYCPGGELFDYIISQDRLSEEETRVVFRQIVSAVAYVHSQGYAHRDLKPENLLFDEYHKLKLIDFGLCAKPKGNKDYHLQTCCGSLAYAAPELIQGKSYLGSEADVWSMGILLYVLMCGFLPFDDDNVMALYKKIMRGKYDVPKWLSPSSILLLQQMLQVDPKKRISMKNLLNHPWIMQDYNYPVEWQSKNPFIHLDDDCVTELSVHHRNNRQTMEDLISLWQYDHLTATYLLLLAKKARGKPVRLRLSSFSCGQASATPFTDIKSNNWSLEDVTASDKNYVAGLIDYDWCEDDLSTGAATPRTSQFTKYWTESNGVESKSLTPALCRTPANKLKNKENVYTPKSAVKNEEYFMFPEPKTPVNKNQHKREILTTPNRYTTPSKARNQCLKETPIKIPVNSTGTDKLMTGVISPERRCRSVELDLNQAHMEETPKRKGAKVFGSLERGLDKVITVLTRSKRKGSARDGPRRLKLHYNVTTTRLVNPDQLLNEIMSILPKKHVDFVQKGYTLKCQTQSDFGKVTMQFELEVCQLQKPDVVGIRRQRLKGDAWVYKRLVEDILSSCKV
Chain of GRK7(h) (Q8WTQ7 whole entry): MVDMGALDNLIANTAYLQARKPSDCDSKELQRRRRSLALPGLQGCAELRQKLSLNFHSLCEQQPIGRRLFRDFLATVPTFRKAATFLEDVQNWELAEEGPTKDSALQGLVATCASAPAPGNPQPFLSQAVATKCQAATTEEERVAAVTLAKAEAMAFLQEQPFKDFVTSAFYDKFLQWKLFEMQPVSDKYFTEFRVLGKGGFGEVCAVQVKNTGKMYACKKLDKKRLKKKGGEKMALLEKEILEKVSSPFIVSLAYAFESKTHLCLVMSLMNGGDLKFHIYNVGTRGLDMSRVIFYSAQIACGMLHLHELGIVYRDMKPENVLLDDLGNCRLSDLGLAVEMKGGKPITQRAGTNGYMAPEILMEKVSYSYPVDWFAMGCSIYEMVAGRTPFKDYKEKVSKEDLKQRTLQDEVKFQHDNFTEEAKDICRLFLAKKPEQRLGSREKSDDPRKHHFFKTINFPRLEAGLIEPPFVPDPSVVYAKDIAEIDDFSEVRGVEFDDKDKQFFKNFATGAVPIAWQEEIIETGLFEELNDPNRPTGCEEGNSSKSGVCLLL
Chain of DDR2(h) (Q16832 22-855): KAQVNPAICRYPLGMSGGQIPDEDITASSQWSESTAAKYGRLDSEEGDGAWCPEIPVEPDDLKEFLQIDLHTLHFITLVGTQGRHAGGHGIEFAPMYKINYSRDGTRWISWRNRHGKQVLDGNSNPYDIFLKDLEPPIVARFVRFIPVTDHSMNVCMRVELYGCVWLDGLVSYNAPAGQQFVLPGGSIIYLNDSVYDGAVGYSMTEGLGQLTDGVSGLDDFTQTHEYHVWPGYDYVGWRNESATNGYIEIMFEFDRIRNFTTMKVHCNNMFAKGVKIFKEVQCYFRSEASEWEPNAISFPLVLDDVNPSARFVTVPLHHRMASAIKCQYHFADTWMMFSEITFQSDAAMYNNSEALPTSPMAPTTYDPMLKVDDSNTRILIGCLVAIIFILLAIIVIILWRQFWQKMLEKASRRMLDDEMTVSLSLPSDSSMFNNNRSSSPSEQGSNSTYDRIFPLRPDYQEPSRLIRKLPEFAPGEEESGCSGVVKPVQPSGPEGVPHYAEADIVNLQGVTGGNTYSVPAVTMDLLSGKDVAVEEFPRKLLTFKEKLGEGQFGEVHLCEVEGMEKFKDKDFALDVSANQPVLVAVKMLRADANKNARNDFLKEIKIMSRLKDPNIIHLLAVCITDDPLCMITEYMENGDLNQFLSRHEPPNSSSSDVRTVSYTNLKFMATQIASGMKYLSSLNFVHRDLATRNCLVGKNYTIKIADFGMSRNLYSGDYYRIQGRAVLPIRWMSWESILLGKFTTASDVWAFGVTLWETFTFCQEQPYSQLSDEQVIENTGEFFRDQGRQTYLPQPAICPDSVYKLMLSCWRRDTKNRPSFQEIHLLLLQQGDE
Chain of VRK2(h) (Q86Y07 whole entry): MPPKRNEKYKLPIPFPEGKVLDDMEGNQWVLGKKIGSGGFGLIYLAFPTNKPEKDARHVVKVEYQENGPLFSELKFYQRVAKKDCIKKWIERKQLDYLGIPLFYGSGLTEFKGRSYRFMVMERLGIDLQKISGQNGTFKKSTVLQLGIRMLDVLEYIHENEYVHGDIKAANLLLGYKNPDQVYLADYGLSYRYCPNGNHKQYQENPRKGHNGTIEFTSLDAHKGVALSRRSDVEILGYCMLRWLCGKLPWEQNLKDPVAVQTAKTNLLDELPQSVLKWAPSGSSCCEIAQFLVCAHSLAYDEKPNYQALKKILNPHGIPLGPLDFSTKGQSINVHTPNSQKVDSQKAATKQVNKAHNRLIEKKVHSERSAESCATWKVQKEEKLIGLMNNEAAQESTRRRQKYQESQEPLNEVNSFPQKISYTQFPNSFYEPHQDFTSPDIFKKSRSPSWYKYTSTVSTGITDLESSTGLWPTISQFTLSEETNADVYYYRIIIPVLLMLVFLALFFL
Chain of Mnk2(h) (Q9HBH9 whole entry): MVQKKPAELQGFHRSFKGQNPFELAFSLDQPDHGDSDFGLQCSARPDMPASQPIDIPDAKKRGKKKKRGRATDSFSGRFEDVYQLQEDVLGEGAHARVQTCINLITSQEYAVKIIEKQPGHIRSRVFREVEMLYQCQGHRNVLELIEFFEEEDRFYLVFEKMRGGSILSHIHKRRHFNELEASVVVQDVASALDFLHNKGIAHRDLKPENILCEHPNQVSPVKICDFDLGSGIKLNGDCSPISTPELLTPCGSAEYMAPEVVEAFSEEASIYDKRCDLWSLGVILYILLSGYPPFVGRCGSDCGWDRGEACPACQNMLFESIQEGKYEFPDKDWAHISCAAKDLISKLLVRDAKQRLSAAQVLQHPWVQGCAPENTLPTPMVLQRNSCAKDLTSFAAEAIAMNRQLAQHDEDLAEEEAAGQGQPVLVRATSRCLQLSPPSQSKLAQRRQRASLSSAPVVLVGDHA

Nc1n[nH]c2ccc(-c3ccnc4[nH]c(-c5ccccc5)cc34)cc12 [Compound 4]
inhibition at 1 µM (LKB1(h)): 15% | inhibition at 1 µM (TAO2(h)): 46% | inhibition at 1 µM (PhKγ2(h)): 50% | inhibition at 1 µM (PKCε(h)): -14% | inhibition at 1 µM (HIPK2(h)): 57% | inhibition at 1 µM (Hck(h) activated): 38% | inhibition at 1 µM (IR(h), activated): 46% | inhibition at 1 µM (RIPK2(h)): 54% | inhibition at 1 µM (Snk(h)): 1% | inhibition at 1 µM (DAPK2(h)): 2% | inhibition at 1 µM (DDR2(h)): 16% | inhibition at 1 µM (MELK(h)): 41% | inhibition at 1 µM (Pyk2(h)): 63% | inhibition at 1 µM (NEK11(h)): 4% | inhibition at 1 µM (MSSK1(h)): 12% | inhibition at 1 µM (CSK(h)): -16% | inhibition at 1 µM (MRCKβ(h)): -10% | inhibition at 1 µM (PEK(h)): 10% | inhibition at 1 µM (SRPK2(h)): -5% | inhibition at 1 µM (Axl(h)): 55% | inhibition at 1 µM (GRK7(h)): 10% | inhibition at 1 µM (PAK5(h)): 16% | inhibition at 1 µM (NEK3(h)): 0% | inhibition at 1 µM (Mnk2(h)): 67% | inhibition at 1 µM (VRK2(h)): 0% | inhibition at 1 µM (Itk(h)): 18% | inhibition at 1 µM (NEK6(h)): 6% | inhibition at 1 µM (SGK3(h)): -8% | inhibition at 1 µM (Lyn(h)): 77% | inhibition at 1 µM (EphB1(h)): 63% | inhibition at 1 µM (CK1γ1(h)): 20% | inhibition at 1 µM (Fer(h)): 7% | inhibition at 1 µM (DMPK(h)): 5% | inhibition at 1 µM (DRAK1(h)): 67% | inhibition at 1 µM (EphA2(h)): 14% | inhibition at 1 µM (AMPKα2(h)): 43% | inhibition at 1 µM (Hck(h)): 21% | inhibition at 1 µM (TSSK1(h)): 34% | inhibition at 1 µM (GRK6(h)): 0% | inhibition at 1 µM (TSSK2(h)): -9% | inhibition at 1 µM (LOK(h)): 67% | inhibition at 1 µM (ALK4(h)): 25%

Nc1n[nH]c2ccc(-c3ccnc4[nH]c(-c5cccc(OCc6ccccc6)c5)cc34)cc12 [Compound 5r [SU1261]]
inhibition at 1 µM (LKB1(h)): 17% | inhibition at 1 µM (TAO2(h)): 7% | inhibition at 1 µM (PhKγ2(h)): 21% | inhibition at 1 µM (PKCε(h)): 0% | inhibition at 1 µM (HIPK2(h)): 14% | inhibition at 1 µM (Hck(h) activated): 22% | inhibition at 1 µM (IR(h), activated): 23% | inhibition at 1 µM (RIPK2(h)): 19% | inhibition at 1 µM (Snk(h)): -2% | inhibition at 1 µM (DAPK2(h)): 13% | inhibition at 1 µM (DDR2(h)): -17% | inhibition at 1 µM (MELK(h)): 13% | inhibition at 1 µM (Pyk2(h)): 22% | inhibition at 1 µM (NEK11(h)): -6% | inhibition at 1 µM (MSSK1(h)): 13% | inhibition at 1 µM (CSK(h)): -4% | inhibition at 1 µM (MRCKβ(h)): 4% | inhibition at 1 µM (PEK(h)): 8% | inhibition at 1 µM (SRPK2(h)): -7% | inhibition at 1 µM (Axl(h)): 9% | inhibition at 1 µM (GRK7(h)): -3% | inhibition at 1 µM (PAK5(h)): 10% | inhibition at 1 µM (NEK3(h)): -14% | inhibition at 1 µM (Mnk2(h)): 26% | inhibition at 1 µM (VRK2(h)): -11% | inhibition at 1 µM (Itk(h)): 20% | inhibition at 1 µM (NEK6(h)): 3% | inhibition at 1 µM (SGK3(h)): -27% | inhibition at 1 µM (Lyn(h)): 31% | inhibition at 1 µM (EphB1(h)): 14% | inhibition at 1 µM (CK1γ1(h)): 10% | inhibition at 1 µM (Fer(h)): -16% | inhibition at 1 µM (DMPK(h)): -4% | inhibition at 1 µM (DRAK1(h)): 24% | inhibition at 1 µM (EphA2(h)): -9% | inhibition at 1 µM (AMPKα2(h)): 13% | inhibition at 1 µM (Hck(h)): 16% | inhibition at 1 µM (TSSK1(h)): 14% | inhibition at 1 µM (GRK6(h)): -8% | inhibition at 1 µM (TSSK2(h)): -9% | inhibition at 1 µM (LOK(h)): 51% | inhibition at 1 µM (ALK4(h)): 8%

Source: article PMC11314561, “Design and Synthesis of Novel Aminoindazole-pyrrolo[2,3-b]pyridine Inhibitors of IKKα That Selectively Perturb Cellular Non-Canonical NF-κB Signalling” (Molecules, 2024)
